Reference: article PMC5218480 (PLoS ONE, 2017)

System: MV-4-11 cells
Assay: Gene expression microarray analysis (Affymetrix PrimeView) and GSEA
Format: cell-based, human
Set-up: RFU PODN (11730768_x_at) / Fold change /veh PODN (11730768_x_at) / RFU LINC00158 (11744669_a_at) / Fold change /veh LINC00158 (11744669_a_at) / RFU DUSP10 (11751237_a_at) / Fold change /veh DUSP10 (11751237_a_at) / RFU ID3 (11757404_x_at) / Fold change /veh ID3 (11757404_x_at) / RFU PLEKHG5 (11737974_s_at) / Fold change /veh PLEKHG5 (11737974_s_at) / RFU LRRC4B (11730491_at) / Fold change /veh LRRC4B (11730491_at) / RFU GIMAP4 (11747438_a_at) / Fold change /veh GIMAP4 (11747438_a_at) / RFU KRT8 (11758183_x_at) / Fold change /veh KRT8 (11758183_x_at) / RFU CNN1 (11734310_a_at) / Fold change /veh CNN1 (11734310_a_at) / RFU VPS37D (11726825_at) / Fold change /veh VPS37D (11726825_at) / RFU C10orf10 (11716522_x_at) / Fold change /veh C10orf10 (11716522_x_at) / RFU KIR2DL2 /// KIR2DL4 /// KIR2DL5A /// KIR2DL5B /// KIR2DS1 /// KIR2DS2 /// KIR2DS3 /// KIR2DS4 /// KIR3DL3 /// KIR3DL3 /// KIR3DS1 (11738374_at) / Fold change /veh KIR2DL2 /// KIR2DL4 /// KIR2DL5A /// KIR2DL5B /// KIR2DS1 /// KIR2DS2 /// KIR2DS3 /// KIR2DS4 /// KIR3DL3 /// KIR3DL3 /// KIR3DS1 (11738374_at) / RFU C1QL1 (11718748_at) / Fold change /veh C1QL1 (11718748_at) / RFU TMPRSS4 (11747572_a_at) / Fold change /veh TMPRSS4 (11747572_a_at) / RFU HAMP (11756126_x_at) / Fold change /veh HAMP (11756126_x_at) / RFU RNFT2 (11725882_a_at) / Fold change /veh RNFT2 (11725882_a_at) / RFU NR4A2 (11747474_a_at) / Fold change /veh NR4A2 (11747474_a_at) / RFU ABCC12 (11746883_a_at) / Fold change /veh ABCC12 (11746883_a_at) / RFU TMEM136 (11760407_x_at) / Fold change /veh TMEM136 (11760407_x_at) / RFU CLDN22 /// WWC2 (11732394_at) / Fold change /veh CLDN22 /// WWC2 (11732394_at) / RFU HLA-DPB1 (11760878_x_at) / Fold change /veh HLA-DPB1 (11760878_x_at) / RFU SPINT1 (11716480_a_at) / Fold change /veh SPINT1 (11716480_a_at) / RFU GAP43 (11754022_s_at) / Fold change /veh GAP43 (11754022_s_at) / RFU A4GNT (11735810_at) / Fold change /veh A4GNT (11735810_at) / RFU PRB3 (11715151_x_at) / Fold change /veh PRB3 (11715151_x_at) / RFU TUBB4B (11761932_at) / Fold change /veh TUBB4B (11761932_at) / RFU CAPN14 (11732068_a_at) / Fold change /veh CAPN14 (11732068_a_at) / RFU TMCC2 (11721928_a_at) / Fold change /veh TMCC2 (11721928_a_at) / RFU IRGQ (11745062_a_at) / Fold change /veh IRGQ (11745062_a_at) / RFU FAM174B (11720279_a_at) / Fold change /veh FAM174B (11720279_a_at) / RFU TMPRSS4 (11748680_a_at) / Fold change /veh TMPRSS4 (11748680_a_at) / RFU FAM212B (11763350_a_at) / Fold change /veh FAM212B (11763350_a_at) / RFU PLEKHG5 (11743358_a_at) / Fold change /veh PLEKHG5 (11743358_a_at) / RFU ZSCAN30 (11745921_a_at) / Fold change /veh ZSCAN30 (11745921_a_at) / RFU CMKLR1 (11741424_a_at) / Fold change /veh CMKLR1 (11741424_a_at) / RFU LOC101060620 /// MAPK8IP1 (11723275_at) / Fold change /veh LOC101060620 /// MAPK8IP1 (11723275_at) / RFU SPTSSB (11747773_x_at) / Fold change /veh SPTSSB (11747773_x_at) / RFU PRSS12 (11739890_at) / Fold change /veh PRSS12 (11739890_at) / RFU BIN1 (11741810_x_at) / Fold change /veh BIN1 (11741810_x_at) / RFU WNT11 (11732464_a_at) / Fold change /veh WNT11 (11732464_a_at) / RFU C10orf10 (11716521_a_at) / Fold change /veh C10orf10 (11716521_a_at) / RFU C5orf56 (11738089_at) / Fold change /veh C5orf56 (11738089_at) / RFU CYB561 (11721691_x_at) / Fold change /veh CYB561 (11721691_x_at) / RFU ANKRD19P (11752326_a_at) / Fold change /veh ANKRD19P (11752326_a_at) / RFU OR2T12 /// OR2T33 /// OR2T8 (11738714_s_at) / Fold change /veh OR2T12 /// OR2T33 /// OR2T8 (11738714_s_at) / RFU VCAN (11748164_a_at) / Fold change /veh VCAN (11748164_a_at) / RFU JSRP1 (11732532_at) / Fold change /veh JSRP1 (11732532_at) / RFU KRTAP10-11 (11738290_x_at) / Fold change /veh KRTAP10-11 (11738290_x_at) / RFU MYO3A (11730013_a_at) / Fold change /veh MYO3A (11730013_a_at) / RFU EBF3 (11725865_a_at) / Fold change /veh EBF3 (11725865_a_at) / RFU CAMK2N1 (11719241_x_at) / Fold change /veh CAMK2N1 (11719241_x_at) / RFU C5orf56 (11738088_a_at) / Fold change /veh C5orf56 (11738088_a_at) / RFU OLFML3 (11715873_a_at) / Fold change /veh OLFML3 (11715873_a_at) / RFU LOC100653217 /// NTM (11731650_a_at) / Fold change /veh LOC100653217 /// NTM (11731650_a_at) / RFU MAPK11 (11762145_a_at) / Fold change /veh MAPK11 (11762145_a_at) / RFU FIZ1 (11724087_x_at) / Fold change /veh FIZ1 (11724087_x_at) / RFU OASL (11726364_x_at) / Fold change /veh OASL (11726364_x_at) / RFU SOX15 (11748057_x_at) / Fold change /veh SOX15 (11748057_x_at) / RFU CD79A (11719716_a_at) / Fold change /veh CD79A (11719716_a_at) / RFU HIST1H1D (11736915_at) / Fold change /veh HIST1H1D (11736915_at) / RFU CASKIN2 (11723855_a_at) / Fold change /veh CASKIN2 (11723855_a_at) / RFU LOC730098 (11760151_x_at) / Fold change /veh LOC730098 (11760151_x_at) / RFU OR4N2 (11742367_at) / Fold change /veh OR4N2 (11742367_at) / RFU PRRT2 (11749266_a_at) / Fold change /veh PRRT2 (11749266_a_at) / RFU SNX32 (11753110_a_at) / Fold change /veh SNX32 (11753110_a_at) / RFU CDHR5 (11726645_a_at) / Fold change /veh CDHR5 (11726645_a_at) / RFU RCAN1 (11760418_a_at) / Fold change /veh RCAN1 (11760418_a_at) / RFU FAM167A (11723789_a_at) / Fold change /veh FAM167A (11723789_a_at) / RFU FAM26E (11764081_at) / Fold change /veh FAM26E (11764081_at) / RFU ISYNA1 (11749810_s_at) / Fold change /veh ISYNA1 (11749810_s_at) / RFU ACY1 (11761880_at) / Fold change /veh ACY1 (11761880_at) / RFU 11764098_at / Fold change /veh 11764098_at / RFU SAMD14 (11745864_x_at) / Fold change /veh SAMD14 (11745864_x_at) / RFU NPB (11741838_a_at) / Fold change /veh NPB (11741838_a_at) / RFU TMPRSS6 (11731388_a_at) / Fold change /veh TMPRSS6 (11731388_a_at) / RFU KRTAP10-2 (11738614_at) / Fold change /veh KRTAP10-2 (11738614_at) / RFU ARHGAP8 /// PRR5-ARHGAP8 (11727945_x_at) / Fold change /veh ARHGAP8 /// PRR5-ARHGAP8 (11727945_x_at) / RFU KRTAP5-7 /// NADSYN1 (11734609_at) / Fold change /veh KRTAP5-7 /// NADSYN1 (11734609_at) / RFU RASL12 (11751679_a_at) / Fold change /veh RASL12 (11751679_a_at) / RFU CDKN2B (11736163_a_at) / Fold change /veh CDKN2B (11736163_a_at) / RFU PRF1 (11729649_at) / Fold change /veh PRF1 (11729649_at) / RFU, ZNF638 /// ZNF638-IT1 / Fold change vs veh, ZNF638 /// ZNF638-IT1 / RFU, PANK3 / Fold change vs veh, PANK3 / RFU, SH3YL1 / Fold change vs veh, SH3YL1 / RFU, ZEB2 / Fold change vs veh, ZEB2 / RFU, NRIP1 / Fold change vs veh, NRIP1 / RFU, PTTG1IP / Fold change vs veh, PTTG1IP / RFU, CAPN2 / Fold change vs veh, CAPN2 / RFU, MED14 / Fold change vs veh, MED14 / RFU, SNORA58 / Fold change vs veh, SNORA58 / RFU, C1orf63 / Fold change vs veh, C1orf63 / RFU, LRRFIP1 / Fold change vs veh, LRRFIP1 / RFU, NDUFAF7 / Fold change vs veh, NDUFAF7 / RFU, SLC12A2 / Fold change vs veh, SLC12A2 / RFU, IBTK / Fold change vs veh, IBTK / RFU, ESF1 / Fold change vs veh, ESF1 / Fold change vs veh, TMEM50B / RFU, TAOK1 / Fold change vs veh, TAOK1 / RFU, ACBD3 / Fold change vs veh, ACBD3 / RFU, TMA16 / Fold change vs veh, TMA16 / RFU, RWDD3 / Fold change vs veh, RWDD3 / RFU, BCAT1 / Fold change vs veh, BCAT1 / RFU, EDEM3 / Fold change vs veh, EDEM3 / RFU, TMEM33 / Fold change vs veh, TMEM33 / RFU, WDR75 / Fold change vs veh, WDR75 / RFU, AHCTF1 / Fold change vs veh, AHCTF1 / RFU, TFRC / Fold change vs veh, TFRC / RFU, ZDHHC17 / Fold change vs veh, ZDHHC17 / RFU, NOM1 / Fold change vs veh, NOM1 / RFU, ARL8B / Fold change vs veh, ARL8B / RFU, ZBTB11 / Fold change vs veh, ZBTB11 / RFU, TAMM41 / Fold change vs veh, TAMM41 / RFU, KIAA1704 /// LOC100996395 / Fold change vs veh, KIAA1704 /// LOC100996395 / RFU, ING1 / Fold change vs veh, ING1 / RFU, TRMT61B / Fold change vs veh, TRMT61B / RFU, FUBP3 / Fold change vs veh, FUBP3 / RFU, TP53 / Fold change vs veh, TP53 / RFU, TNKS2 / Fold change vs veh, TNKS2 / RFU, ZFP14 / Fold change vs veh, ZFP14 / RFU, ACTR2 / Fold change vs veh, ACTR2 / RFU, PPP3R1 / Fold change vs veh, PPP3R1 / RFU, PIK3R1 / Fold change vs veh, PIK3R1 / RFU, HNRNPA1 / Fold change vs veh, HNRNPA1 / RFU, RNF170 / Fold change vs veh, RNF170 / RFU, ZNF28 / Fold change vs veh, ZNF28 / RFU, RNGTT / Fold change vs veh, RNGTT / RFU, OGT / Fold change vs veh, OGT / RFU, BRD1 / Fold change vs veh, BRD1 / RFU, MARS / Fold change vs veh, MARS / RFU, ZNF655 / Fold change vs veh, ZNF655 / RFU, FAHD1 / Fold change vs veh, FAHD1 / RFU, BDP1 / Fold change vs veh, BDP1 / RFU, LRRCC1 / Fold change vs veh, LRRCC1 / RFU, ARID1A / Fold change vs veh, ARID1A / RFU, ZNF146 / Fold change vs veh, ZNF146 / RFU, ZNF330 / Fold change vs veh, ZNF330 / RFU, GPN3 / Fold change vs veh, GPN3 / RFU, C9orf123 / Fold change vs veh, C9orf123 / RFU, N4BP2L2 / Fold change vs veh, N4BP2L2 / RFU, ARFIP1 / Fold change vs veh, ARFIP1 / RFU, FAM179B / Fold change vs veh, FAM179B / RFU, BCL10 / Fold change vs veh, BCL10 / RFU, UHRF1BP1L / Fold change vs veh, UHRF1BP1L / RFU, BET1 / Fold change vs veh, BET1 / RFU, CNOT2 / Fold change vs veh, CNOT2 / RFU, ZNF268 / Fold change vs veh, ZNF268 / Fold change vs veh, ZNF507 / RFU, DGCR2 / Fold change vs veh, DGCR2 / RFU, WDSUB1 / Fold change vs veh, WDSUB1 / Fold change vs veh, HSP90B1 /// MIR3652 / RFU, ADSS / Fold change vs veh, ADSS / RFU, GK / Fold change vs veh, GK / RFU, ZNF148 / Fold change vs veh, ZNF148 / RFU, TAF9 / Fold change vs veh, TAF9 / RFU, SLC1A5 / Fold change vs veh, SLC1A5 / RFU, SLMO2 / Fold change vs veh, SLMO2 / RFU, ABCC4 / Fold change vs veh, ABCC4 / RFU, LOC101060439 /// RAP1B / Fold change vs veh, LOC101060439 /// RAP1B / RFU, RFX7 / Fold change vs veh, RFX7 / RFU, GTPBP10 / Fold change vs veh, GTPBP10 / RFU, CNEP1R1 / Fold change vs veh, CNEP1R1 / RFU, BIVM-ERCC5 /// ERCC5 / Fold change vs veh, BIVM-ERCC5 /// ERCC5 / RFU, ILF3 / Fold change vs veh, ILF3 / RFU 11762660_at / Fold change /veh 11762660_at / RFU VCAN (11757783_s_at) / Fold change /veh VCAN (11757783_s_at) / RFU DDX43 (11728927_at) / Fold change /veh DDX43 (11728927_at) / RFU KRT8 (11758188_x_at) / Fold change /veh KRT8 (11758188_x_at) / RFU NKD1 (11759106_at) / Fold change /veh NKD1 (11759106_at) / RFU SRD5A1 (11742802_a_at) / Fold change /veh SRD5A1 (11742802_a_at) / RFU TPSAB1 /// TPSB2 (11721975_s_at) / Fold change /veh TPSAB1 /// TPSB2 (11721975_s_at) / RFU GSTM3 (11746129_a_at) / Fold change /veh GSTM3 (11746129_a_at) / RFU IL23R (11737362_x_at) / Fold change /veh IL23R (11737362_x_at) / RFU TMEM51 (11727254_a_at) / Fold change /veh TMEM51 (11727254_a_at) / RFU PIWIL2 (11732686_x_at) / Fold change /veh PIWIL2 (11732686_x_at) / RFU ORM1 (11744905_x_at) / Fold change /veh ORM1 (11744905_x_at) / RFU CCDC152 (11743942_at) / Fold change /veh CCDC152 (11743942_at) / RFU ECM1 (11717891_a_at) / Fold change /veh ECM1 (11717891_a_at) / RFU IL23R (11748794_a_at) / Fold change /veh IL23R (11748794_a_at) / RFU TNFAIP8L3 (11732012_x_at) / Fold change /veh TNFAIP8L3 (11732012_x_at) / RFU MBOAT4 (11741988_at) / Fold change /veh MBOAT4 (11741988_at) / RFU 11764193_at / Fold change /veh 11764193_at / RFU TMEM53 (11763286_at) / Fold change /veh TMEM53 (11763286_at) / RFU MAGEB2 (11727129_at) / Fold change /veh MAGEB2 (11727129_at) / RFU TMEM200A (11744735_a_at) / Fold change /veh TMEM200A (11744735_a_at) / RFU CCDC152 (11751479_a_at) / Fold change /veh CCDC152 (11751479_a_at) / RFU FAM211A (11726209_a_at) / Fold change /veh FAM211A (11726209_a_at) / RFU RGS16 (11746705_a_at) / Fold change /veh RGS16 (11746705_a_at) / RFU VCAN (11755009_s_at) / Fold change /veh VCAN (11755009_s_at) / RFU RHOB (11743442_s_at) / Fold change /veh RHOB (11743442_s_at) / RFU RGS16 (11720943_a_at) / Fold change /veh RGS16 (11720943_a_at) / RFU RGS16 (11720944_at) / Fold change /veh RGS16 (11720944_at) / RFU, VPS4B / Fold change vs veh, VPS4B / RFU, CREB1 / Fold change vs veh, CREB1 / RFU, DNAJC13 / Fold change vs veh, DNAJC13 / RFU, GNAQ / Fold change vs veh, GNAQ / RFU, CDK5R1 / Fold change vs veh, CDK5R1 / RFU, ZRANB3 / Fold change vs veh, ZRANB3 / RFU, CUL4A / Fold change vs veh, CUL4A / RFU, CCNY / Fold change vs veh, CCNY / RFU, UFL1 / Fold change vs veh, UFL1 / RFU, COG3 / Fold change vs veh, COG3 / RFU, DIAPH2 / Fold change vs veh, DIAPH2 / RFU, SKA2 / Fold change vs veh, SKA2 / RFU, AFF3 / Fold change vs veh, AFF3 / RFU, LMF1 / Fold change vs veh, LMF1 / RFU, IPO11 / Fold change vs veh, IPO11 / RFU, DFFB / Fold change vs veh, DFFB / RFU, FOXP1 / Fold change vs veh, FOXP1 / RFU, CARD8 / Fold change vs veh, CARD8 / RFU, STRN3 / Fold change vs veh, STRN3 / RFU, ADK / Fold change vs veh, ADK / RFU, RASSF2 / Fold change vs veh, RASSF2 / RFU, WIPF1 / Fold change vs veh, WIPF1 / RFU, LARP1B / Fold change vs veh, LARP1B / RFU, RASA1 / Fold change vs veh, RASA1 / RFU, RB1 / Fold change vs veh, RB1 / RFU, PPFIA1 / Fold change vs veh, PPFIA1 / RFU, MAT2A / Fold change vs veh, MAT2A / RFU, CCT5 / Fold change vs veh, CCT5 / RFU, WDR92 / Fold change vs veh, WDR92 / RFU, CUX1 / Fold change vs veh, CUX1 / RFU, TTC7A / Fold change vs veh, TTC7A / RFU, TMEM135 / Fold change vs veh, TMEM135 / RFU, DEPTOR / Fold change vs veh, DEPTOR / RFU, CPM / Fold change vs veh, CPM / RFU, DNAJB6 / Fold change vs veh, DNAJB6 / RFU, CACNA2D3 / Fold change vs veh, CACNA2D3 / RFU, DTX4 / Fold change vs veh, DTX4 / RFU, TFCP2 / Fold change vs veh, TFCP2 / RFU, GMCL1 /// GMCL1P1 / Fold change vs veh, GMCL1 /// GMCL1P1 / RFU, AEBP2 / Fold change vs veh, AEBP2 / RFU, SNHG1 /// SNORD22 /// SNORD25 /// SNORD26 /// SNORD27 /// SNORD28 /// SNORD29 /// SNORD31 / Fold change vs veh, SNHG1 /// SNORD22 /// SNORD25 /// SNORD26 /// SNORD27 /// SNORD28 /// SNORD29 /// SNORD31 / Fold change (Aza/veh), C12orf56 (ProbeSet 11735607_a_at) / Fold change (ACY-1035/veh), C12orf56 (ProbeSet 11735607_a_at) / Fold change (Aza/veh), FGFR1OP (ProbeSet 11751329_s_at) / Fold change (ACY-1035/veh), FGFR1OP (ProbeSet 11751329_s_at) / Fold change (Aza/veh), VPS36 (ProbeSet 11739960_a_at) / Fold change (ACY-1035/veh), VPS36 (ProbeSet 11739960_a_at) / RFU SYPL1 (11715823_x_at) / Fold change /veh SYPL1 (11715823_x_at) / RFU IGFBP7 (11715501_s_at) / Fold change /veh IGFBP7 (11715501_s_at) / RFU REEP3 (11722064_at) / Fold change /veh REEP3 (11722064_at) / RFU IGLL1 (11728026_x_at) / Fold change /veh IGLL1 (11728026_x_at): dose or concentration left out as unconfirmed
Conditions: MV-4-11 cells, 48 hours

SMILES: Nc1ccc(-c2cccs2)cc1NC(=O)c1ccc2c(c1)cc(C1CC1)n2CCN1CCOCC1 [ACY-1035]
- Fold change /veh GIMAP4 (11747438_a_at): 1.02
